According to patent US4215049A, “Antitumorigenic lactone derivative” (Nippon Kayaku Kabushiki Kaisha, priority 1977, dated 1980):
≈ marks a conversion by molar mass, not a printed value.

What was measured:
[1] = system: Ehrlich ascites cancer cells; test: Life-prolonging effect for mice suffering from Ehrlich ascites cancer; format: in vivo, mice (ICR/JCL); conditions: for Life prolongation rate: average survival days, control group indexed as 100; for life-prolonging effect for mice with Ehrlich ascites cancer (in words): in comparison with the control mice
Method: The mice of ICR/JCL species (.male., 5-week-old, 5 mice per group) were intraperitoneally inoculated with 2,000,000 pieces of Ehrlich ascites cancer cells, and the compounds of this invention were administered, starting 2 hours after inoculation, in the dosages shown in Table 5 below once a day for a total period of 10 days.
the drug treated groups as calculated with the average number of survival
days of the control group being indexed as 100.

[2] = system: HeLa S3 cells; test: Inhibitory effect against growth of HeLa S3 cells (in vitro); format: cell-based; conditions: for IC50: 72 h, HeLa S3 cells, read-out: ID50 (the source's name); for inhibitory effect against growth of cancer (HeLa) cells (in words): low concentration
Method: The roots (0.3 kg by half-dry weight), stalks (1.6 kg by half-dry weight) and leaves (2.1 kg by half-dry weight) were ground and extracted respectively with methanol. Each liquid extract was filtered and the filtrate was concentrated under reduced pressure to obtain an oily residue containing the object compounds.
(Note) The inhibitory effect against growth of the HeLa cells was determined in the manner described below.
The HeLa S3 cells were spread on 6 cm-diameter plastic laboratory plates in the amount of 0.7×10^5 cells/plate and cultured by using an MEM medium containing 60 μg/ml of kanamycin and 10% calf serum. 2 days later, the medium was replaced with one containing the compounds of this invention. The cell population at that time was 1.58×10^5 cells/plat. After addition of the compounds, the cells were cultured for three days, and then, after removing the medium, the culture was washed with a physiological saline solution, treated with 0.05% trypsin at room temperature for about 15 minutes, and then pipetted and dispersed. The number of surviving cells was counted by a […], and percent inhibition was measured by counting the number of the living cells in the control section to determine ID50. [formula]

[3] = 7.50 mg/kg once a day for 10 days
[4] = 15.0 mg/kg once a day for 10 days

IC50 ([2]; Homo sapiens, 3 days) [µg/mL]	SMILES	Life prolongation rate [1, 3]	Life prolongation rate [1, 4]	effect of compound III compared with compounds I and II (in words) ([1]; mouse, in vivo)	life-prolonging effect for mice with Ehrlich ascites cancer (in words) [1]	inhibition at 1 µg/mL ([2]; Homo sapiens, HeLa S3, 72 h, 1 μg/ml, 3 days, read-out: Percent inhibition) [%]	inhibition at 2 µg/mL ([2]; Homo sapiens, HeLa S3, 72 h, 2 μg/ml, 3 days, read-out: Percent inhibition) [%]	inhibition at 4 µg/mL ([2]; Homo sapiens, HeLa S3, 72 h, 4 μg/ml, 3 days, read-out: Percent inhibition) [%]	inhibitory effect against growth of cancer (HeLa) cells (in words) [2]	inhibition at 0.375 µg/mL ([2]; Homo sapiens, HeLa S3, 72 h, 0.375 μg/ml, 3 days, read-out: Percent inhibition) [%]	inhibition at 0.75 µg/mL ([2]; Homo sapiens, HeLa S3, 72 h, 0.75 μg/ml, 3 days, read-out: Percent inhibition) [%]	inhibition at 1.5 µg/mL ([2]; Homo sapiens, HeLa S3, 72 h, 1.5 μg/ml, 3 days, read-out: Percent inhibition) [%]
	C=C1C(=O)OC2C=C(C)C(OC(C)=O)CC=C(C)CC(O)C12 (stereo not shown) [III]	95	108	not so conspicuous in effect as the compounds I and II								
1.4 (≈ 3.33 µM)	C=C1C(=O)OC2C=C(C)C(OC(C)=O)CC=C(C)CC(OC(=O)C(=CCO)CO)C12 (stereo not shown) [Compound I]	253	232		prominent life-prolonging effect	29.4	74.9	100	high inhibitory effect against growth of the cancer cells			
0.62 (≈ 1.53 µM)	C=C1C(=O)OC2C=C(C)C(OC(C)=O)CC=C(C)CC(OC(=O)C(C)=CCO)C12 (stereo not shown) [II]	159	173		prominent life-prolonging effect				high inhibitory effect against growth of the cancer cells	28.4	57	100
